Data set [1] concerns the target bacterial sialidases. The format is biochemical. To be noted: read-out: Ki (range).
In data set [2] the target is T1, Vibrio cholerae sialidase (Vibrio cholerae serotype O1, UniProt P0C6E9).
For data set [3], the target named is T1, Vibrio cholerae sialidase. In words: biochemical.
Data set [4] has as its target T2, Salmonella typhimurium sialidase (Salmonella typhimurium, UniProt P29768). The settings on record: for competitive inhibitor potency (in words): summary statement.
Data set [5] deals with T2, Salmonella typhimurium sialidase. In words: biochemical.
Data set [6] has as its system Clostridium perfringens sialidase. The format is biochemical. The settings on record: for binding/inhibition of 5a compared with 5b (in words): 5a vs 5b; for affinity relative to substrate (in words): Ki vs substrate Km; for Ki: Table 1, competitive inhibition fit; for competitive inhibitor potency (in words): summary statement.
In data set [7] the test system is influenza neuraminidase. To be noted: literature; FANA compared with DANA; cited from earlier work.
The conditions of data set [8]: carboxyl group adjacent to the anomeric carbon; cited from earlier work.
For data set [9], the system named is CC(=O)NC1C(O)CC(Oc2ccc([N+](=O)[O-])cc2)(C(=O)O)OC1C(O)C(O)CO. In words: purified protein, by the assay type. To be noted: pH 5.5; 30.0 °C.

Entries after “also recorded” stand apart in the source; their conditions may differ. Read-outs that look alike come from different tables or passages of the source.

T2 sequence (P29768 whole entry): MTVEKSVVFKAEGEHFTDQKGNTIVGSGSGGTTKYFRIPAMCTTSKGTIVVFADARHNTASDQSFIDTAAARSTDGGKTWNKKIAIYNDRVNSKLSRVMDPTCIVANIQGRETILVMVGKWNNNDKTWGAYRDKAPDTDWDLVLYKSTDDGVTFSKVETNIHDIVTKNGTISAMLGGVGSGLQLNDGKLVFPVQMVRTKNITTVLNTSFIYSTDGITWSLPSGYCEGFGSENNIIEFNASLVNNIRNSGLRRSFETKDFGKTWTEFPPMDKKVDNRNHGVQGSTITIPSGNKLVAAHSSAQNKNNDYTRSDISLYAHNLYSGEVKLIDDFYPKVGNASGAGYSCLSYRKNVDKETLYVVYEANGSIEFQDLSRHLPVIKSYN
T1 sequence (P0C6E9 25-781): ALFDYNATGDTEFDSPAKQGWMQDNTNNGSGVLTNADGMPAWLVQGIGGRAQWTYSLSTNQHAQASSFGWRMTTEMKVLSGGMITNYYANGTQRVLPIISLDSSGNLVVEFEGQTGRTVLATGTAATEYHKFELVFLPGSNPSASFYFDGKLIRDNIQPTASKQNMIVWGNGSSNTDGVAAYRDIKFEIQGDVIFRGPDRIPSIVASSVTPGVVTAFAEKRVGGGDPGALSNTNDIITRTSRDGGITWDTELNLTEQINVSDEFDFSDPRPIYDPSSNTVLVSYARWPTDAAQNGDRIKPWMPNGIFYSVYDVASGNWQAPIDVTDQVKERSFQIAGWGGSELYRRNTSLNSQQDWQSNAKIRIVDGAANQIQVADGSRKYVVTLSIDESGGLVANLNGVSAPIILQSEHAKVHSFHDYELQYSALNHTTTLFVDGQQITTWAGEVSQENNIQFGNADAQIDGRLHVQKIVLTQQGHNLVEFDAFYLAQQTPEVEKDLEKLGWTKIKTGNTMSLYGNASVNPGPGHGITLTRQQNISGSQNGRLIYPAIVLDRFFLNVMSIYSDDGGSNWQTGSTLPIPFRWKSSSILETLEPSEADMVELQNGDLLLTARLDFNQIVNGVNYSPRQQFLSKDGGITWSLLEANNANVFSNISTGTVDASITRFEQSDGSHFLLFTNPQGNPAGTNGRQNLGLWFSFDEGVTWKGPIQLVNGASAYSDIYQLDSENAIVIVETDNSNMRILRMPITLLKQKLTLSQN

The Ki is the dissociation constant of the complex between target and ligand, obtained from inhibition or displacement. `CC(=O)N[C@H]1[C@H](O)CN(C(Cc2ccccc2)C(=O)O)C[C@@H]1O` (relative stereo) [±5b, trans-trans-5-N-(1'-carboxy-benzyl-ethyl)-3,5-dihydroxy-4-acetamidopiperidine]: the Ki in data set [1] is 100 to 1000 µM; in [3], 1500 ± 200 µM; in data set [5], 560 ± 30 µM; in [6] (pH 5.5, 30° C.), 500 ± 70 µM. For the same compound, the “binding / inhibition (in words)” value is recorded as “modest inhibitor” in [2] and “bind weakly” in data set [2] (listed as 5b). In addition, the “binding of ±5b relative to 5a (in words)” value in data set [2] (5b vs 5a) and in [4] (5b vs 5a) was “bound tighter than 5a” each time. Moreover, the “binding relative to the p-nitrophenyl glycoside substrate” value in data set [2] (Ki vs substrate Km) and in [4] (Ki vs substrate Km) was “approximately 2 × tighter” in each case. Besides, in data set [4] (5b vs 5a), the “binding of ±5b relative to 5a” value is given as approximately 5 times more tightly. In addition, the “type of inhibition (double reciprocal plot)” value in data set [4] (FIG. 4) was “competitive”. For the same compound, the “competitive inhibitor potency (in words)” value in data set [4] and in data set [6] was “sub-millimolar competitive inhibitors” each time. Further, the “binding/inhibition of 5a compared with 5b (in words)” value in data set [6] is “inhibited to the same extent”; in data set [6] (listed as 5b), “no net energetic advantage over binding 5a exists; also recorded: no preference”. Further, the “affinity relative to substrate (in words)” value in data set [6] was “slightly lower affinity than substrate”.

As a reminder, the Km is the substrate concentration at which the rate is half of its maximum. For the compound `CC(=O)NC1C(O)CC(Oc2ccc([N+](=O)[O-])cc2)(C(=O)O)OC1C(O)C(O)CO` [2-O-(p-nitrophenyl)-a-D-N-acetylneuraminic acid, reference compound], in data set [6] (pH 5.5, 30° C.), the Km amounted to 280 ± 30 µM.

Consider `CC(=O)N[C@H]1[C@H](O)CN(CC(=O)O)C[C@@H]1O` [Compound 5a], for which the Ki is 100 to 1000 µM in [1]; more than 2000 µM in data set [3]; 2500 ± 400 µM in data set [5]; 400 ± 100 µM in [6] (pH 5.5, 30° C.). Also, the “binding / inhibition (in words)” value in data set [2] is “bind weakly”. In data set [2] (up to 2 mM 5a, pH 5.5, 30° C.), the “inhibition at concentrations up to / below 2 mM” value is recorded as “No inhibition; also recorded: did not show inhibition”. Moreover, the “competitive inhibitor potency (in words)” value in data set [4] and in [6] was “sub-millimolar competitive inhibitors” throughout. Besides, the “binding/inhibition of 5a compared with 5b (in words)” value in [6] is on record as “inhibited to the same extent; also recorded: no preference”. Further, in data set [6], the “affinity relative to substrate (in words)” value was “slightly lower affinity than substrate”.

As to `CC(=O)N[C@H]1[C@H]([C@H](O)[C@H](O)CO)OC(C(=O)O)=C[C@@H]1O` [DANA, 2-deoxy-2,3-dehydro-N-acetylneuraminic acid], in data set [7], the “in vitro inhibition of influenza neuraminidase (in words)” value is reported as “effective in vitro inhibitor of NA; also recorded: among the most potent thus far described”.

Take `O=C(O)C1=C[C@H](O)[C@@H](NC(=O)C(F)(F)F)[C@H]([C@H](O)[C@H](O)CO)O1` [FANA, 2-deoxy-2,3-dehydro-N-(trifluoroacetyl) neuraminic acid]: in [7], the “in vitro inhibition of influenza neuraminidase (in words)” value is given as “greater in vitro activity”.

Regarding `CC(=O)N[C@H]1[C@H]([C@H](O)[C@H](O)CO)OC(O)(C(=O)O)C[C@@H]1O` (stereo partly drawn) [N-acetyl neuraminic acid], the pKa in [8] is ~ 2.8.

Regarding “Salmonella typhimurium sialidase (Salmonella enterica subsp. enterica serovar Typhimurium str. LT2)”, the Km in [9] was found to be 1200 µM.

As for “Vibrio cholerae sialidase (Vibrio cholerae O1 biovar El Tor str. N16961)”, the Km in data set [9] was determined as 2700 µM.

Values taken from patent US6020344A (priority 1998, dated 2000).
